Results on six compounds are retold here after PMC10743895, “Synthesis of 1,3,4-Thiadiazole Derivatives and Their Anticancer Evaluation” (International Journal of Molecular Sciences, 2023).

Read-outs that look alike come from different tables or passages of the source.

The subject of data set [1] is MCF-7 cells. Nature of the data set: Apoptosis assay (Annexin V-FITC/PI flow cytometry), MCF-7. It counts as cell-based, human. Here is the method:
(§1) Two reference concentrations, 5 μM and 50 μM, and two distinct treatment durations, 24 and 48 h, were employed to assess the influence of the test compounds on apoptosis in both normal and tumor cells. […] HUVEC cells were exposed to both drugs.
(§2) The apoptosis assay was performed according to the manufacturer’s instructions using the Annexin V-FITC kit (BD Biosciences, San Jose, CA, USA). Cells untreated and treated with the experimental compound were suspended in a cold binding buffer. The percentages of apoptotic cells were determined by double staining with Annexin V-FITC/PI. In each tube was added 400 μL of Annexin V binding buffer and the 5000 cells/sample for 15 min in the dark at room temperature. The cells were analyzed using a FACSCantoII flow-cytometer (Becton Dickinson—BD, La Jolla, CA, USA). The analysis was performed using DIVA 6.2 software to discriminate viable cells (FITC-PI-) from necrotic cells (FITC + PI+), and early apoptosis (FITC + PI) from late apoptosis.

In data set [2] the test system is MCF-7 cells. Put plainly: MTS cell viability assay, MCF-7 cells. It counts as cell-based, human. Particulars: for IC50: Homo sapiens. Here is the method: (§3) To determine the optimal working concentration, dose-effect curves were made for each compound in the range of concentrations between 6.25 and 400 μM.
(§4) LoVo (human colorectal adenocarcinoma) human cancer cell line and HUVEC normal cells were purchased from American Type Culture Collection (ATCC). The MCF-7 human breast adenocarcinoma cell line was provided from European Collection of Authenticated Cell Cultures (ECACC). HUVEC normal cells, isolated from the vascular endothelium of an umbilical cord, were used as a reference. Adherent cells were maintained in culture in Dulbecco’s modified Eagle medium/nutrient mixture F-12 (DMEM:F12) with 2 mM of L-glutamine, 10% fetal bovine serum, 100 units/mL of penicillin and 100 μg/mL of streptomycin, and incubated at 37 °C in a 5% CO2-humidified atmosphere. After 24 h, adherent cells were treated with different concentrations of the compounds for different periods of time. Cis-Pt and DOX, conventional oncology drugs used in cancer treatments, can be used as a positive control of the experiments. […] Then, cells were detached with a nonenzymatic solution of phosphate-buffered saline (PBS)/1 mM EDTA and washed twice in PBS.
(§5) The study utilized a colorimetric assay based on MTS (chemically known as 3-(4,5-dimethylthiazol-2-yl)-5-(3-carboxymethoxyphenyl)-2-(4-sulfophenyl)-2H-tetrazolium) and called CellTiter 96 Aqueous One Solution Cell proliferation Assay (Promega, Madison, WI, USA) in order to measure cell viability. The assay was performed in triplicate in 96-well microtiter plates with a flat bottom (Falcon). A number of 1 × 10^4 cells/well were cultured in 100 μL for 24 h, culture supernatants were discarded, and then cells were treated for 24 and 48 h with increasing concentrations of the tested compound. After the end of the incubation time, 20 μL of the reagent containing MTS and PES (phenazine ethosulfate) was added in each well. Plates were incubated for 4 h at 37 °C, with mild agitation every 15 min. The reduction in the tetrazolium compound to formazan was spectrophotometrically measured at λ = 492 nm using a Dynex plate reader (DYNEX Technologies MRS, Chantilly, VA, USA). The percentage of viability compared to untreated cells (considered 100% viable) was calculated with the formula:(1) Cell viability (%)=Absorbance treated cells−Absorbance culture medium/Absorbance untreated cells−Absorbance culture medium×100
(§6) The cell viability compared was calculated and data were expressed as a mean ± standard deviation (SD) of the experiments and obtained in triplicate (n = 3).

Data set [3] relates to LoVo cells. Put plainly: MTS cell viability assay, LoVo cells. It counts as cell-based, human. Here is the method: as §3, §4, §5, §6
The subject of data set [4] is LoVo cells. Nature of the data set: Apoptosis assay (Annexin V-FITC/PI flow cytometry), LoVo. It counts as cell-based, human. How it is done: as §1, §2
In general terms: Flow cytometry measures light scatter and fluorescence of single cells or particles in a stream.

Data set [5] concerns Daphnia magna. Put plainly: Daphnia magna toxicity assay. It counts as in vivo. Particulars: up to 200 µM. How it is done:
The Daphnia magna bioassay results are presented in Table 3 as the maximum average percentage of lethality (L%) registered for each compound and the median lethal concentration (LC50) if the values permitted its calculation.
Daphnia magna Straus is parthenogenetically maintained at ‘Carol Davila’ University’s Department of Pharmaceutical Botany and Cell Biology. The culture was consistently maintained at a temperature of 25 °C, with a 16-h light and 8-h dark photoperiod. To ensure consistency, young daphnids were carefully chosen based on their size and kept in an artificial medium for 24 h prior to the assessment. The bioassay involved 10 daphnids per replicate, using tissue culture plates with 12 wells from Greiner Bio-One. The experimental procedure followed the protocol described in previous studies.
Each determination was carried out in duplicate.

Data set [6] relates to HUVEC normal cells. Put plainly: MTS cell viability assay, HUVEC normal cells. It counts as cell-based, human. Here is the method: as §3, §4, §5, §6
Data set [7] concerns HUVEC cells. Nature of the data set: Apoptosis assay (Annexin V-FITC/PI flow cytometry), HUVEC. It counts as cell-based, human. How it is done:
as §1, §2

The mark [8] stands for this setting: MCF7, read-out: IC50 (48 h) MCF-7, 48 h exposure.
[9] abbreviates: MCF7, 24 h exposure, read-out: IC50 (24 h) MCF-7.
The mark [10] stands for this setting: Homo sapiens, LoVo, read-out: IC50 (48 h) LoVo, 48 h exposure.
[11] abbreviates: Homo sapiens, LoVo, 24 h exposure, read-out: IC50 (24 h) LoVo.
The mark [12] stands for this setting: Homo sapiens, HUVEC, read-out: IC50 (48 h) HUVEC, 48 h exposure.
Setting [13] is: Homo sapiens, HUVEC, 24 h exposure, read-out: IC50 (24 h) HUVEC.

In the case of `Nc1nnc(-c2ccccc2)s1` [2a, 5-Phenyl-1,3,4-thiadiazol-2-amine], the “Total Apoptosis (%) 24 h MCF-7” value in data set [1] (5 μM) is 11.8%; in data set [1] (50 μM), 9.8%. Further, the “Total Apoptosis (%) 48 h MCF-7” value in data set [1] (5 μM) came to 24.4%; in data set [1] (50 μM), 24.7%. For the same compound, the IC50 – broadly, the concentration that inhibits the measured activity by half – is more than 400 µM in data set [2] (setting [8]); more than 400 µM in data set [2] (setting [9]); 62.2 µM in data set [3] (setting [10]); 204 µM in data set [3] (setting [11]); 83.8 µM in data set [6] (setting [12]); more than 400 µM in data set [6] (setting [13]). Also, the “Total Apoptosis (%) 24 h LoVo” value in data set [4] (5 μM) amounted to 9.0%; in data set [4] (50 μM) it was 8.9%. In addition, the “Total Apoptosis (%) 48 h LoVo” value in data set [4] (5 μM) was found to be 17.6%; in data set [4] (50 μM), 13.7%. Also, the “Maximum Average L% (lethality)” value in data set [5] (24 h) was determined as 0%; in data set [5] (48 h) it was 40%. Also, the “Total Apoptosis (%) 24 h HUVEC” value in data set [7] (5 μM) is listed as 12.8%; in data set [7] (50 μM), 15.0%. Moreover, the “Total Apoptosis (%) 48 h HUVEC” value in data set [7] (5 μM) was 14.7%; in data set [7] (50 μM), 18.4%.

On to `Nc1nnc(-c2ccc(O)c(O)c2)s1` [2c, 5-(3,4-Dihydroxyphenyl)-1,3,4-thiadiazol-2-amine], for which the “Total Apoptosis (%) 24 h MCF-7” value turned out to be 11.7% in data set [1] (5 μM) and 7.6% in data set [1] (50 μM). For the same compound, the results for the “Total Apoptosis (%) 48 h MCF-7” value in data set [1] (5 μM) and in data set [1] (50 μM) were 26.6% and 15.1%, respectively. The “viability of MCF-7 cells” value in data set [2] (48-h period) is on record as “less than 50%”. The IC50 in data set [2] (setting [8]) was 398 µM; in data set [2] (setting [9]), more than 400 µM; in data set [3] (setting [10]) it was 117 µM; in data set [3] (setting [11]) it was 163 µM; in data set [6] (setting [12]), 155 µM; in data set [6] (setting [13]), more than 400 µM. The figures for the “Total Apoptosis (%) 24 h LoVo” value in data set [4] (5 μM) and in data set [4] (50 μM) were 7.5% and 6.8%, respectively. The “Total Apoptosis (%) 48 h LoVo” value was 13.0% in data set [4] (5 μM) and 13.8% in data set [4] (50 μM). Further, the “Maximum Average L% (lethality)” value in data set [5] (24 h) came to 0%; in data set [5] (48 h), 25%. The “Total Apoptosis (%) 24 h HUVEC” value in data set [7] (5 μM) is 16.6%; in data set [7] (50 μM), 12.1%. Besides, the “Total Apoptosis (%) 48 h HUVEC” value in data set [7] (5 μM) worked out at 15.6%; in data set [7] (50 μM), 12.1%.

Turning to `COc1cc(-c2nnc(N)s2)cc(OC)c1OC` [2e, 5-(3,4,5-Trimethoxyphenyl)-1,3,4-thiadiazol-2-amine], the “Total Apoptosis (%) 24 h MCF-7” value stood at 9.1% in data set [1] (5 μM) and 14.9% in data set [1] (50 μM). Besides, the “Total Apoptosis (%) 48 h MCF-7” value is 24.6% in data set [1] (5 μM) and 34.2% in data set [1] (50 μM). The IC50 in data set [2] (setting [8]) was more than 400 µM; in data set [2] (setting [9]), more than 400 µM; in data set [3] (setting [10]), 79.2 µM; in data set [3] (setting [11]), 108 µM; in data set [6] (setting [12]), 300 µM; in data set [6] (setting [13]), more than 400 µM. Moreover, the “Total Apoptosis (%) 24 h LoVo” value came out at 4.9% in data set [4] (5 μM) and 16.4% in data set [4] (50 μM). Moreover, the “Total Apoptosis (%) 48 h LoVo” value in data set [4] (5 μM) turned out to be 14.3%; in data set [4] (50 μM), 19.9%. Besides, the entries for the “Maximum Average L% (lethality)” value in data set [5] (24 h) and in data set [5] (48 h) were 0% and 5%, respectively. Further, the entries for the “Total Apoptosis (%) 24 h HUVEC” value in data set [7] (5 μM) and in data set [7] (50 μM) were 26.3% and 24.3%, respectively. In addition, the “Total Apoptosis (%) 48 h HUVEC” value was found to be 13.1% in data set [7] (5 μM) and 15.5% in data set [7] (50 μM).

With `Nc1nnc(-c2ccccc2CSc2ccccc2)s1` [2f, 5-[2-(Phenylthiomethyl)phenyl]-1,3,4-thiadiazol-2-amine], the “Total Apoptosis (%) 24 h MCF-7” value in data set [1] (5 μM) stood at 22.0%; in data set [1] (50 μM) it was 12.6%. The “Total Apoptosis (%) 48 h MCF-7” value in data set [1] (5 μM) was determined as 44.0%; in data set [1] (50 μM) it was 45.0%. Further, the IC50 was more than 400 µM in data set [2] (setting [8]); more than 400 µM in data set [2] (setting [9]); 80.7 µM in data set [3] (setting [10]); more than 400 µM in data set [3] (setting [11]); more than 400 µM in data set [6] (setting [12]); more than 400 µM in data set [6] (setting [13]). The “Total Apoptosis (%) 24 h LoVo” value in data set [4] (5 μM) is listed as 14.9%; in data set [4] (50 μM), 8.2%. Also, the figures for the “Total Apoptosis (%) 48 h LoVo” value in data set [4] (5 μM) and in data set [4] (50 μM) were 27.0% and 17.4%, respectively. For the same compound, the “Maximum Average L% (lethality)” value was 5% in data set [5] (24 h) and 10% in data set [5] (48 h). Further, the “Total Apoptosis (%) 24 h HUVEC” value in data set [7] (5 μM) is 19.9%; in data set [7] (50 μM), 18.6%. The “Total Apoptosis (%) 48 h HUVEC” value is given as 15.9% in data set [7] (5 μM) and 14.6% in data set [7] (50 μM).

Consider `N.N.[Cl][Pt][Cl]` [Cis-Pt, Cisplatin, reference compound], for which the IC50 in data set [3] (24 h exposure, read-out: IC50 (24 h) LoVo) turned out to be 12.8 µM; in data set [3] (read-out: IC50 (48 h) LoVo, 48 h exposure), 80.1 µM; in data set [6] (24 h exposure, read-out: IC50 (24 h) HUVEC), 11.1 µM; in data set [6] (read-out: IC50 (48 h) HUVEC, 48 h exposure), 8.23 µM. Moreover, the “Total Apoptosis (%) 24 h LoVo” value in data set [4] (5 μM) worked out at 15.7%; in data set [4] (50 μM) it was 24.5%. The “Total Apoptosis (%) 48 h LoVo” value in data set [4] (5 μM) amounted to 31.6%; in data set [4] (50 μM), 38.7%. For the same compound, the “Total Apoptosis (%) 24 h HUVEC” value is 15.7% in data set [7] (5 μM) and 21.7% in data set [7] (50 μM). Moreover, the “Total Apoptosis (%) 48 h HUVEC” value in data set [7] (5 μM) was 14.8%; in data set [7] (50 μM), 17.4%.

For the compound `COc1cccc2c1C(=O)c1c(O)c3c(c(O)c1C2=O)C[C@@](O)(C(=O)CO)C[C@@H]3O[C@H]1C[C@H](N)[C@H](O)[C@H](C)O1` [DOX, Doxorubicin, reference compound], the “Total Apoptosis (%) 48 h MCF-7” value in data set [1] (5 μM) was 33.6%; in data set [1] (50 μM), 49.0%. In data set [1] (50 μM), the “Total Apoptosis (%) 24 h MCF-7” value is 19.0%. The IC50 is 87.4 µM in data set [2] (setting [8]), 129 µM in data set [2] (setting [9]), 1.35 µM in data set [6] (setting [12]) and 1.03 µM in data set [6] (setting [13]). Besides, the “Total Apoptosis (%) 24 h HUVEC” value in data set [7] (5 μM) was determined as 15.2%; in data set [7] (50 μM), 18.6%. Moreover, in data set [7] (5 μM), the “Total Apoptosis (%) 48 h HUVEC” value amounted to 9.5%.
